The subject of assay [1] is IL-23-stimulated phosphorylated STAT3 in peripheral blood mononuclear cells (PBMCs). Briefly: PBMC pSTAT3 Assay. To be noted: PBMCs from healthy donors; 30 min preincubation with peptide; IL-23 5 ng/mL for 30 min; phospho-STAT3 by MSD. Type of assay: cell-based. A digest of the protocol:
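Healthy-donor PBMCs expanded 4 days on anti-CD3 with 100 ng/mL IL-1β, starved ~4 h in RPMI-0.1% BSA, preincubated 30 min with peptide, then stimulated 30 min at 37 °C with 5 ng/mL IL-23. Lysate pSTAT3 measured by MSD phospho-STAT panel; IC50 derived.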

The target of the next assay is T1, IL-23R (Homo sapiens, UniProt Q5VWK5).
T1 construct: HEK293 cells containing IL-23R, IL-12Rβ1 and a firefly luciferase reporter gene driven by a STAT-inducible promoter (Promega); host or cells: HEK293
T1 sequence (Q5VWK5 24-629): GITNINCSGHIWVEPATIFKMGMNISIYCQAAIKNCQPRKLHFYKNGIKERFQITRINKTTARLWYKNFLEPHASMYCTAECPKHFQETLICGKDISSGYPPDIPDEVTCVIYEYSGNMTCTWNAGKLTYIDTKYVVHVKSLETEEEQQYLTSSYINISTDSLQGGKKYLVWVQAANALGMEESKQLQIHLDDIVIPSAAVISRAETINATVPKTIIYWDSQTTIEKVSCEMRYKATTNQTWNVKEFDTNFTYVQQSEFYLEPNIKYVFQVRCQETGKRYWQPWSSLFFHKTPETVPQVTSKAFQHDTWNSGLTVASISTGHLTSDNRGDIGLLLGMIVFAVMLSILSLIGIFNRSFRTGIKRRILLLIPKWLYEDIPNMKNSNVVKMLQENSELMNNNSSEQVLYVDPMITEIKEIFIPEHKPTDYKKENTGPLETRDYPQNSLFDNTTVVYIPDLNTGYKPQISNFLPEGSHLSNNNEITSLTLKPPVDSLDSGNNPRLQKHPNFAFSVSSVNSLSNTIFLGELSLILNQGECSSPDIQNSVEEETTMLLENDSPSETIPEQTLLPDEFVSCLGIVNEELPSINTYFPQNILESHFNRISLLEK
Nature of the assay: IL23R Reporter Assay. Format: cell-based. The conditions noted are these: HEK293 cells containing IL-23R, IL-12Rβ1 and STAT-inducible firefly luciferase reporter; 10 ng/mL IL-23 (EC90); 5 h. In outline: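 HEK293 cells carrying IL-23R, IL-12Rβ1 and a STAT-driven firefly luciferase reporter (4000 cells/well) received compound, then 10 ng/mL IL-23 solution (EC90), and were incubated for 5 h at 37° C. BioGlo luminescence was normalised to IL-23 alone (0%) and 30 μM control inhibitor (100%). IC50 came from a 4-parameter Hill fit.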
For orientation: A reporter such as luciferase makes a cellular process visible.

Molecules are shown by their SMILES. *1 amine or outer side, *2 acyl side, *3 side chain or, on linkers, in order; H or OH if unused. Where a SMILES comes first, the peptide text is derived from it. Bridges are numbered along the chain shown (N, C = ends). Side-chain parts run from the residue outwards. [ ]: non-standard residue; d: D form. The star is where a group is joined. X11 = CN(CC(N)=O)C(=O)[C@H](Cc1cccnc1)NC(O)[C@H](CC(N)=O)N*; Trp(7-Me) = Cc1cccc2c(C[C@H](N)C(=O)O)c[nH]c12; C18 diacid = O=C(O)CCCCCCCCCCCCCCCCC(=O)*; γGlu = O=C(O)[C@H](CCC(=O)[*:2])N[*:1]; 2Nal = N[C@@H](Cc1ccc2ccccc2c1)C(=O)O; AEF = NCCOc1ccc(C[C@H](N)C(=O)O)cc1; X2 = C[N+](C)(C)C[C@@H](CC(=O)O)N*; 2Pal = N[C@@H](Cc1ccccn1)C(=O)O; 3Pal = N[C@@H](Cc1cccnc1)C(=O)O; Pen = CC(C)(S)[C@H](N)C(=O)O; Suc = O=C(CCC(=O)[*:2])[*:1]; Thp = NC1(C(=O)O)CCOCC1; AEEA = NCCOCCOCC(=O)O; Sar = CNCC(=O)O

For `CC(=O)NCCCC[C@@H]1NC(=O)[C@H](Cc2c[nH]c3c(C)cccc23)NC(=O)[C@H]([C@@H](C)O)NC(=O)[C@H](CC(N)=O)NC(=O)[C@@H](NC(=O)COCCOCCNC(=O)COCCOCCNC(=O)CC[C@H](NC(=O)CCCCCCCCCCCCCCCCC(=O)O)C(=O)O)C(C)(C)SSC(C)(C)[C@@H](C(=O)N[C@@H](Cc2ccc(OCCN)cc2)C(=O)N[C@@H](Cc2ccc3ccccc3c2)C(=O)NC2(C(=O)N[C@@H](CCCCNC(=O)CCC(=O)N[C@H](CC(=O)O)C[N+](C)(C)C)C(=O)N[C@@H](CC(N)=O)C(O)N[C@@H](Cc3cccnc3)C(=O)N(C)CC(N)=O)CCOCC2)NC1=O` (stereo partly drawn) [compound 44, HOC18gEPEG2PEG2CO-Pen(3)-N-T-7MeW-K(Ac)-Pen(3)-AEF-2Nal-THP-K(d)-N-3Pya-Sar-CONH2], the results for the IC50 (in assay [1]; against IL-23R) were below 0.5 nM and below 50 nM, respectively.

On to `CC(=O)NCCCC[C@@H]1NC(=O)[C@H](Cc2c[nH]c3c(C)cccc23)NC(=O)[C@H]([C@@H](C)O)NC(=O)[C@H](CC(N)=O)NC(=O)[C@@H](NC(=O)[C@@H](CCCNC(=N)N)NC(=O)COCCOCCNC(=O)COCCOCCNC(=O)CC[C@H](NC(=O)CCCCCCCCCCCCCCCCC(=O)O)C(=O)O)C(C)(C)SSC(C)(C)[C@@H](C(=O)N[C@@H](Cc2ccc(OCCN)cc2)C(=O)N[C@@H](Cc2ccc3ccccc3c2)C(=O)NC2(C(=O)N[C@@H](CCCCNC(=O)CCC(=O)N[C@H](CC(=O)O)C[N+](C)(C)C)C(=O)N[C@@H](CC(N)=O)C(O)N[C@@H](Cc3cccnc3)C(=O)N(C)CC(N)=O)CCOCC2)NC1=O` (stereo partly drawn) [compound 45, HOC18gEPEG2PEG2CO-r-Pen(3)-N-T-7MeW-K(Ac)-Pen(3)-AEF-2Nal-THP-K(d)-N-3Pya-Sar-CONH2] ({C18 diacid-γGlu-AEEA-AEEA}-[dR][Pen]NT[Trp(7-Me)]K(Ac)[Pen][AEF][2Nal][Thp]K([Suc-X2])-X11; disulfide 2-7), for which the figures for the IC50 (in assay [1]; against IL-23R) were below 0.5 nM and 50 to 500 nM, respectively.

For the compound `Cc1cccc2c(C[C@@H]3NC(=O)[C@H]([C@@H](C)O)NC(=O)[C@H](CC(N)=O)NC(=O)[C@@H](NC(=O)[C@@H](CCCNC(=N)N)NC(=O)COCCOCCNC(=O)COCCOCCNC(=O)CC[C@H](NC(=O)CCCCCCCCCCCCCCCCC(=O)O)C(=O)O)C(C)(C)SSC(C)(C)[C@@H](C(=O)N[C@@H](Cc4ccc(OCCN)cc4)C(=O)N[C@@H](Cc4ccc5ccccc5c4)C(=O)NC4(C(=O)N[C@@H](CCC(=O)O)C(=O)N[C@@H](CC(N)=O)C(=O)N[C@@H](Cc5cccnc5)C(=O)N(C)CC(N)=O)CCOCC4)NC(=O)[C@H](CCCCNC(=O)CCC(=O)N[C@H](CC(=O)O)C[N+](C)(C)C)NC3=O)c[nH]c12` [compound 46, HOC18gEPEG2PEG2CO-r-Pen(3)-N-T-7MeW-K(d)-Pen(3)-AEF-2Nal-THP-E-N-3Pya-Sar-CONH2] ({C18 diacid-γGlu-AEEA-AEEA}-[dR][Pen]NT[Trp(7-Me)]K([Suc-X2])[Pen][AEF][2Nal][Thp]EN[3Pal][Sar]-NH2; disulfide 2-7), the IC50 (usually the point on the concentration scale where inhibition reaches its midpoint) in assay [1] is below 0.5 nM; on IL-23R it was below 50 nM.

`CC(=O)N[C@H](CCCNC(=N)N)C(=O)N[C@@H]1C(=O)N[C@@H](CC(N)=O)C(=O)N[C@@H]([C@@H](C)O)C(=O)N[C@@H](Cc2c[nH]c3c(C)cccc23)C(=O)N[C@@H](CCCCNC(=O)CCC(=O)N[C@H](CC(=O)O)C[N+](C)(C)C)C(=O)N[C@H](C(=O)N[C@@H](Cc2ccc(OCCN)cc2)C(=O)N[C@@H](Cc2ccc3ccccc3c2)C(=O)NC2(C(=O)N[C@@H](CCCCNC(=O)COCCOCCNC(=O)COCCOCCNC(=O)CC[C@H](NC(=O)CCCCCCCCCCCCCCCCC(=O)O)C(=O)O)C(=O)N[C@@H](CC(N)=O)C(=O)N[C@@H](Cc3cccnc3)C(=O)N(C)CC(N)=O)CCOCC2)C(C)(C)SSC1(C)C` [compound 48, MeCO-r-Pen(3)-N-T-7MeW-K(d)-Pen(3)-AEF-2Nal-THP-K(PEG2PEG2gEC18OH)-N-3Pya-Sar-CONH2] (Ac-[dR][Pen]NT[Trp(7-Me)]K([Suc-X2])[Pen][AEF][2Nal][Thp]K([AEEA-AEEA-γGlu-C18 diacid])N[3Pal][Sar]-NH2; disulfide 2-7): the IC50 in assay [1] was below 0.5 nM; against IL-23R, 50 to 500 nM.

With `CC(=O)NCCCC[C@@H]1NC(=O)[C@H](Cc2c[nH]c3c(C)cccc23)NC(=O)[C@H]([C@@H](C)O)NC(=O)[C@H](CC(N)=O)NC(=O)[C@@H](NC(=O)[C@@H](CCCNC(=N)N)NC(=O)CCC(=O)N[C@H](CC(=O)O)C[N+](C)(C)C)C(C)(C)SSC(C)(C)[C@@H](C(=O)N[C@@H](Cc2ccc(OCCN)cc2)C(=O)N[C@@H](Cc2ccc3ccccc3c2)C(=O)NC2(C(=O)N[C@@H](CCCCNC(=O)COCCOCCNC(=O)COCCOCCNC(=O)CC[C@H](NC(=O)CCCCCCCCCCCCCCCCC(=O)O)C(=O)O)C(=O)N[C@@H](CC(N)=O)C(=O)N[C@@H](Cc3ccccn3)C(=O)N(C)CC(N)=O)CCOCC2)NC1=O` [compound 49, succiniccarn-r-Pen(3)-N-T-7MeW-K(Ac)-Pen(3)-AEF-2Nal-THP-K(PEG2PEG2gEC18OH)-N-3Pya-Sar-CONH2] ({X2-Suc}-[dR][Pen]NT[Trp(7-Me)]K(Ac)[Pen][AEF][2Nal][Thp]K([AEEA-AEEA-γGlu-C18 diacid])N[2Pal][Sar]-NH2; disulfide 2-7), the results for the 50% inhibitory concentration (IC50) (in assay [1]; against IL-23R) were below 0.5 nM and 50 to 500 nM, respectively.

On to `C=C(O)[C@H](CCC(=O)NCCOCCOCC(=O)NCCOCCOCC(=O)NCCCC[C@H](NC(=O)CN(C)C(=O)[C@H](Cc1cccnc1)NC(=O)[C@H](CC(N)=O)NC(=O)[C@H](CCCCNC(=O)CCC(=O)N[C@H](CC(=O)O)C[N+](C)(C)C)NC(=O)C1(NC(=O)[C@H](Cc2ccc3ccccc3c2)NC(=O)[C@H](Cc2ccc(OCCN)cc2)NC(=O)[C@H]2NC(=O)[C@H](CCCCNC(C)=O)NC(=O)[C@H](Cc3c[nH]c4c(C)cccc34)NC(=O)[C@H]([C@@H](C)O)NC(=O)[C@H](CC(N)=O)NC(=O)[C@@H](NC(C)=O)C(C)(C)SSC2(C)C)CCOCC1)C(N)=O)NC(=O)CCCCCCCCCCCCCCCCC(=O)O` [compound 50, MeCO-Pen(3)-N-T-7MeW-K(Ac)-Pen(3)-AEF-2Nal-THP-K(d)-N-3Pya-Sar-K(PEG2PEG2gEC18OH)-CONH2], for which the half-maximal inhibitory concentration (IC50) in assay [1] was below 0.5 nM; on IL-23R, 50 to 500 nM.

`CC(=O)NCCCC[C@@H]1NC(=O)[C@H](Cc2c[nH]c3c(C)cccc23)NC(=O)[C@H]([C@@H](C)O)NC(=O)[C@H](CC(N)=O)NC(=O)[C@@H](NC(=O)[C@@H](CCCNC(=N)N)NC(C)=O)C(C)(C)SSC(C)(C)[C@@H](C(=O)N[C@@H](Cc2ccc(OCCN)cc2)C(=O)N[C@@H](Cc2ccc3ccccc3c2)C(=O)NC2(C(=O)N[C@@H](CCCCNC(=O)CCC(=O)N[C@H](CC(=O)O)C[N+](C)(C)C)C(=O)N[C@@H](CC(N)=O)C(=O)N[C@@H](Cc3cccnc3)C(=O)N(C)CC(=O)N[C@@H](CCCCNC(=O)COCCOCCNC(=O)COCCOCCNC(=O)CC[C@H](NC(=O)CCCCCCCCCCCCCCCCC(=O)O)C(=O)O)C(N)=O)CCOCC2)NC1=O` [compound 51, MeCO-r-Pen(3)-N-T-7MeW-K(Ac)-Pen(3)-AEF-2Nal-THP-K(d)-N-3Pya-Sar-K(PEG2PEG2gEC18OH)-CONH2] (Ac-[dR][Pen]NT[Trp(7-Me)]K(Ac)[Pen][AEF][2Nal][Thp]K([Suc-X2])N[3Pal][Sar]K([AEEA-AEEA-γGlu-C18 diacid])-NH2; disulfide 2-7): the values for the half-inhibitory concentration (IC50) (in assay [1]; against IL-23R) were below 0.5 nM and at least 500 nM, respectively.

Values taken from patent publication US20260250320A1, “LIPIDATED PEPTIDE INHIBITORS OF INTERLEUKIN-23 RECEPTOR” (Janssen Pharmaceutica NV, priority 2023, published 2026).
